From ChEMBL document CHEMBL1131851, “Synthesis and fluorescence properties of Oregon Green 514 labeled peptides” (Bioorg Med Chem Lett, 1999)

Experiment: Acid dissociation constant of the compound.
Type: ADME

Structure (SMILES) | pKa
O=C(O)c1ccc(C(=O)O)c(-c2c3ccc(=O)cc-3oc3cc(O)ccc23)c1 [6-Carboxyfluorescein] | 6.4
O=C(O)CSc1c(F)c(F)c(C(=O)O)c(-c2c3cc(F)c(=O)cc-3oc3cc(O)c(F)cc23)c1F | 4.8
